{"source": "patent US20230123497A1", "about": "“NOVEL ANTIBACTERIAL HYDROGELS” (NewSouth Innovations Pty Limited, priority 2020, published 2023)", "test_system": "S. aureus 38", "experiment": "Antibacterial activity of cationic hydrogels, viable count method", "format": "cell-based, Staphylococcus aureus", "details": "hydrogel at 1% w/v in contact with S. aureus, compared to control", "procedure": "The antibacterial activity of the anthranilamide-based cationic hydrogels 11-13 and 15-19 was investigated in vitro against S. aureus. The antibacterial activity of anthranilamide-based cationic hydrogel 11 was also investigated in vitro against E. coli.\nFirst, a single colony of S. aureus 38 or E. coli K12 was grown in Luria-Bertani (LB) broth medium at 37° C. overnight. The resulting bacteria were harvested, via centrifugation, to obtain a bacteria pellet which was re-suspended in the same volume of LB medium, twice. The optical density (OD) value of the resulting culture was adjusted to 0.1 at 600 nm in LB (10^8 cfu·mL^−1). This bacteria solution was then further adjusted to 3×10^4 cfu mL^−1. (CFU or cfu=colony-forming unit). Bacteria solutions (1 mL), which contain either 10^8 CFUs/mL or 3×10^4 CFUs/mL, were gently added to hydrogel 11 at 1% w/v with total volume of 1 mL. Anthranilamide-based cationic hydrogels 11-13 and 15-19 (1 mL) were prepared at 1% w/v in glass vials as described above. On top of these pre-formed hydrogels, 1 mL of bacteria solution was carefully cast. […] As a negative control, a bacterial solution in the absence of hydrogel was used. After being incubated at 37° C. for 18 hours, 100 μL of bacteria solution in each vial was taken and subjected to serial dilution using phosphate buffer solution (PBS). 20 μL of each dilution were carefully transferred into nutrient agar plates and incubated for another 18 hours. The following day, bacterial growth inhibition was quantified using the viable count method. The experiment was performed twice in triplicate and multiple sample comparison was performed using one-way ANOVA at p<0.05."}
{"compound": "NCCCNC(=O)[C@H](Cc1ccccc1)NC(=O)c1ccccc1NC(=O)c1ccc2ccccc2c1", "note": "[Compound 11]", "values": [{"measurement": "bacterial reduction", "result": 9.0, "unit": "Log10"}]}
